Data reported in publication PMC9386018, “A lymphatic-absorbed multi-targeted kinase inhibitor for myelofibrosis therapy” (Nature Communications, 2022).
Where “and” joins values, the source holds several entries; their conditions need not be identical. Equal entries are not always repeated.

Assay: Pharmacokinetic analysis of plasma after intravenous and oral dosing
Conditions: for concentration at 0.167 h / concentration at 0.5 h / concentration at 1 h / concentration at 2 h / concentration at 4 h / concentration at 7 h / concentration at 16 h: female, CD-1, mouse, plasma

Concentration (Supplementary Figure 6a, i.v., Time 0.167 h, individual replicates): 779 ng/mL and 846 ng/mL
Concentration (Supplementary Figure 6a, i.v., Time 0.5 h, individual replicates): 677 ng/mL and 624 ng/mL
Concentration (Supplementary Figure 6a, i.v., Time 1 h, individual replicates): 440 ng/mL and 492 ng/mL
Concentration (Supplementary Figure 6a, i.v., Time 2 h, individual replicates): 490 ng/mL and 355 ng/mL
Concentration (Supplementary Figure 6a, i.v., Time 4 h, individual replicates): 243 ng/mL and 164 ng/mL
Concentration (Supplementary Figure 6a, i.v., Time 7 h, individual replicates): 72.7 ng/mL and 57.8 ng/mL
Concentration (Supplementary Figure 6a, i.v., Time 16 h, individual replicates): 4.08 ng/mL
Concentration (Supplementary Figure 6a, i.v., Time 24 h, individual replicates): 5.08 ng/mL and 1.82 ng/mL and 2.98 ng/mL
Concentration (Supplementary Figure 6a, p.o., Time 0.167 h, individual replicates): 507 ng/mL and 993 ng/mL and 283 ng/mL
Concentration (Supplementary Figure 6a, p.o., Time 0.5 h, individual replicates): 891 ng/mL and 764 ng/mL
Concentration (Supplementary Figure 6a, p.o., Time 1 h, individual replicates): 1540 ng/mL and 1240 ng/mL
Concentration (Supplementary Figure 6a, p.o., Time 2 h, individual replicates): 490 ng/mL and 399 ng/mL
Concentration (Supplementary Figure 6a, p.o., Time 4 h, individual replicates): 412 ng/mL and 334 ng/mL
Concentration (Supplementary Figure 6a, p.o., Time 7 h, individual replicates): 463 ng/mL and 555 ng/mL
Concentration (Supplementary Figure 6a, p.o., Time 16 h, individual replicates): 362 ng/mL and 491 ng/mL
Concentration (Supplementary Figure 6a, p.o., Time 24 h, individual replicates): 443 ng/mL and 223 ng/mL and 212 ng/mL
concentration at 0.167 h (iv, 15 mg kg^−1, Concentration, Supplementary Figure 6a, Time 0.167 h, individual replicates): 934 ng/mL
concentration at 0.5 h (iv, 15 mg kg^−1, Concentration, Supplementary Figure 6a, Time 0.5 h, individual replicates): 923 ng/mL
concentration at 1 h (iv, 15 mg kg^−1, Concentration, Supplementary Figure 6a, Time 1 h, individual replicates): 602 ng/mL
concentration at 2 h (iv, 15 mg kg^−1, Concentration, Supplementary Figure 6a, Time 2 h, individual replicates): 572 ng/mL
concentration at 4 h (iv, 15 mg kg^−1, Concentration, Supplementary Figure 6a, Time 4 h, individual replicates): 282 ng/mL
concentration at 7 h (iv, 15 mg kg^−1, Concentration, Supplementary Figure 6a, Time 7 h, individual replicates): 99.2 ng/mL
concentration at 16 h (iv, 15 mg kg^−1, Concentration, Supplementary Figure 6a, Time 16 h, individual replicates): 7.87 ng/mL
concentration at 0.167 h (iv, 15 mg kg^−1, Concentration, Time 0.167 h, individual animals, Supplementary Figure 12a): 306 ng/mL
concentration at 0.167 h (iv, 15 mg kg^−1, Concentration, Time 0.167 h, individual animals, Supplementary Figure 12b): 641 ng/mL
concentration at 0.5 h (iv, 15 mg kg^−1, Concentration, Time 0.5 h, individual animals, Supplementary Figure 12a): 175 ng/mL
concentration at 0.5 h (iv, 15 mg kg^−1, Concentration, Time 0.5 h, individual animals, Supplementary Figure 12b): 938 ng/mL
concentration at 1 h (iv, 15 mg kg^−1, Concentration, Time 1 h, individual animals, Supplementary Figure 12a): 146 ng/mL
concentration at 1 h (iv, 15 mg kg^−1, Concentration, Time 1 h, individual animals, Supplementary Figure 12b): 783 ng/mL
concentration at 2 h (iv, 15 mg kg^−1, Concentration, Time 2 h, individual animals, Supplementary Figure 12a): 86.8 ng/mL
concentration at 2 h (iv, 15 mg kg^−1, Concentration, Time 2 h, individual animals, Supplementary Figure 12b): 510 ng/mL
concentration at 4 h (iv, 15 mg kg^−1, Concentration, Time 4 h, individual animals, Supplementary Figure 12b): 322 ng/mL
concentration at 7 h (iv, 15 mg kg^−1, Concentration, Time 7 h, individual animals, Supplementary Figure 12a): 22.8 ng/mL
concentration at 0.167 h (po, 200 mg kg^−1, Concentration, Time 0.167 h, individual animals, Supplementary Figure 12a): 155 ng/mL
concentration at 0.5 h (po, 200 mg kg^−1, Concentration, Time 0.5 h, individual animals, Supplementary Figure 12a): 968 ng/mL
concentration at 0.5 h (po, 200 mg kg^−1, Concentration, Time 0.5 h, individual animals, Supplementary Figure 12b): 692 ng/mL
concentration at 1 h (po, 200 mg kg^−1, Concentration, Time 1 h, individual animals, Supplementary Figure 12b): 841 ng/mL
concentration at 2 h (po, 200 mg kg^−1, Concentration, Time 2 h, individual animals, Supplementary Figure 12a): 2500 ng/mL
concentration at 4 h (po, 200 mg kg^−1, Concentration, Time 4 h, individual animals, Supplementary Figure 12a): 3420 ng/mL
concentration at 7 h (po, 200 mg kg^−1, Concentration, Time 7 h, individual animals, Supplementary Figure 12a): 1870 ng/mL
concentration at 7 h (po, 200 mg kg^−1, Concentration, Time 7 h, individual animals, Supplementary Figure 12b): 1070 ng/mL
concentration at 16 h (po, 200 mg kg^−1, Concentration, Time 16 h, individual animals, Supplementary Figure 12b): 2410 ng/mL
concentration at 0.5 h (po, 400 mg kg^−1, Concentration, Supplementary Figure 6a, Time 0.5 h, individual replicates): 644 ng/mL
concentration at 1 h (po, 400 mg kg^−1, Concentration, Supplementary Figure 6a, Time 1 h, individual replicates): 1700 ng/mL
concentration at 2 h (po, 400 mg kg^−1, Concentration, Supplementary Figure 6a, Time 2 h, individual replicates): 787 ng/mL
concentration at 4 h (po, 400 mg kg^−1, Concentration, Supplementary Figure 6a, Time 4 h, individual replicates): 398 ng/mL
concentration at 7 h (po, 400 mg kg^−1, Concentration, Supplementary Figure 6a, Time 7 h, individual replicates): 473 ng/mL
concentration at 16 h (po, 400 mg kg^−1, Concentration, Supplementary Figure 6a, Time 16 h, individual replicates): 572 ng/mL
Concentration (i.v., Time 0.167 h, individual animals, Supplementary Figure 12a): 324 ng/mL and 426 ng/mL
Concentration (i.v., Time 0.5 h, individual animals, Supplementary Figure 12a): 148 ng/mL and 180 ng/mL
Concentration (i.v., Time 1 h, individual animals, Supplementary Figure 12a): 168.8 ng/mL and 187.8 ng/mL
Concentration (i.v., Time 1 h, individual animals, Supplementary Figure 12b): 1480 ng/mL and 1110 ng/mL
Concentration (i.v., Time 2 h, individual animals, Supplementary Figure 12a): 50 ng/mL and 64 ng/mL
Concentration (i.v., Time 2 h, individual animals, Supplementary Figure 12b): 498 ng/mL and 604 ng/mL
Concentration (i.v., Time 4 h, individual animals, Supplementary Figure 12a): 45.8 ng/mL and 21 ng/mL and 26 ng/mL
Concentration (i.v., Time 4 h, individual animals, Supplementary Figure 12b): 244 ng/mL and 464 ng/mL
Concentration (i.v., Time 7 h, individual animals, Supplementary Figure 12a): 12.78 ng/mL
Concentration (i.v., Time 7 h, individual animals, Supplementary Figure 12b): 206 ng/mL and 134 ng/mL and 272 ng/mL
Concentration (i.v., Time 16 h, individual animals, Supplementary Figure 12b): 25.9 ng/mL and 66.9 ng/mL and 61.2 ng/mL
Concentration (i.v., Time 24 h, individual animals, Supplementary Figure 12b): 6.26 ng/mL and 32.6 ng/mL and 25 ng/mL
Concentration (p.o., Time 0.167 h, individual animals, Supplementary Figure 12b): 181 ng/mL
Concentration (p.o., Time 0.5 h, individual animals, Supplementary Figure 12a): 788 ng/mL and 600 ng/mL
Concentration (p.o., Time 2 h, individual animals, Supplementary Figure 12a): 2100 ng/mL and 1302 ng/mL
Concentration (p.o., Time 4 h, individual animals, Supplementary Figure 12a): 2980 ng/mL and 1762 ng/mL
Concentration (p.o., Time 7 h, individual animals, Supplementary Figure 12a): 1768 ng/mL and 1234 ng/mL
Concentration (p.o., Time 16 h, individual animals, Supplementary Figure 12a): 414 ng/mL and 996 ng/mL and 1288 ng/mL
Concentration (p.o., Time 24 h, individual animals, Supplementary Figure 12a): 996 ng/mL and 508 ng/mL and 280 ng/mL
Compound: O=C(O)c1ccc(F)c(F)c1Nc1ccc(I)cc1F [PD315209, reference compound]
Concentration (p.o., Time 0.167 h, individual animals, Supplementary Figure 12a): 145.8 ng/mL and 107.6 ng/mL and 206 ng/mL and 132.6 ng/mL and 193 ng/mL
Concentration (p.o., Time 1 h, individual animals, Supplementary Figure 12a): 1006 ng/mL and 784 ng/mL and 260 ng/mL and 1464 ng/mL and 1172 ng/mL and 1344 ng/mL
